Assays:
Assay type in all cases: in vivo, Balb/c female mice
[1] = Body weight in asthma-induced mice; details: homoegonol study
Procedure: (§1) To prepare bronchial asthma-induced experimental animals, six-week-old Balb/c female mice of mean weight about 20 g were used. After one week of adaptation, individuals which had no observed abnormality on a basic physical examination were targeted. 200 μL of phosphate buffered saline (PBS)(pH 7.4) in which 2 mg of aluminum hydroxide (A8222, Sigma, St. Louis, Mo.) and 20 μg of ovalbumin (A5503, Sigma, St. Louis, Mo.) were suspended was injected into the peritoneal cavity at two-week intervals to result in sensitization. On days 28 to 30 after the first intraperitoneal administration of ovalbumin, inhalation challenge was performed for 30 min with 1% ovalbumin using an ultrasonic atomizer. 24 hours after the last antigen administration, airway hyperresponsiveness was measured. After 24 hours, a lethal dose of pentobarbital (Entobar®, Hanlim Pharm Co., Ltd.) was administered, body weight measurement and bronchotomy were performed, and bronchoalveolar lavage was performed with a total 1.2 mL of physiological saline, and then, samples were collected. […] Eight white mice were used for each group. Experimental groups for homoegonol were a group (hE7.5) in which animals were orally administered with 7.5 mg/kg homoegonol 1 hour prior to ovalbumin inhalation, a group (hE15) in which animals were orally administered with 15 mg/kg homoegonol 1 hour prior to ovalbumin inhalation, and a group (hE30) in which animals were orally administered with 30 mg/kg homoegonol 1 hour prior to ovalbumin inhalation, and five white mice were used for each group.
To determine an effect of styraxlignolide A on reduction in body weight in asthma-induced mice, body weight of each mouse prepared in Example 2 was measured. For statistical analyses for all measurements, means and standard errors (mean±S.E.) according to a number of variables were calculated, and comparison between each group was analyzed by performing a Mann-whitney U test using SPSS 10.0. Statically significance was accepted at p<0.05.
To determine an effect of homoegonol on reduction in body weight in asthma-induced mice, body weight of each mouse prepared in Example 2 was measured. For statistical analyses for all measurements, means and standard errors (mean±S.E.) according to a number of variables were calculated, and comparison between each group was analyzed by performing a Mann-whitney U test using SPSS 10.0. Statically significance was accepted at p<0.05.

[2] = tested on: airway hyperresponsiveness; assay: Airway hyperresponsiveness, Penh by one chamber plethysmography after methacholine inhalation; details: asthma-induced mice, homoegonol study
Procedure: as §1, with “Experimental groups for homoegonol were a group (hE7.5) in which animals were orally administered with 7.5 mg/kg homoegonol 1 hour prior to ovalbumin inhalation, a group (hE15) in which animals were orally administered with 15 mg/kg homoegonol 1 hour prior to ovalbumin inhalation, and a group (hE30) in which animals were orally administered with 30 mg/kg homoegonol 1 hour prior to ovalbumin inhalation, and five white mice were used for each group.” left out
The effect of styraxlignolide A on airway hyperresponsiveness caused by asthma occurrence was examined by measuring airway resistance with one chamber plethysmography (All medicus, Seoul, Republic of Korea) and degree of airway resistance was assessed by measuring Penh (enhanced pause) values. The baseline value was measured under a normal respiratory condition, and then, PBS was inhaled using an ultrasonic atomizer for 3 min, and Penh values were measured over 3 min. […] Louis, Mo.) which is used in general methods for diagnosis of bronchial asthma were inhaled and Penh values were measured. Penh value is shown in the following Equation 1, and the resulting Penh value was expressed as a percent increase in Penh after inhalation of each concentration of methacholine. The baseline Penh (saline challenge) was expressed as 100%.
Te: expiratory time (sec), the time from inspiration to the next inspiration
RT: relaxation time, the elapsed time between the beginning of the expiration and the moment when the remaining 30% of the tidal volume has been reached during expiration
PEF: Peak expiration flow
PIF: Peak inspiration flow
To examine the effect of homoegonol on airway hyperresponsiveness caused by asthma occurrence, Penh value was measured according to the method in <Experimental Example 2>.

ovalbumin-specific IgE = assay: IgE levels in serum and bronchoalveolar lavage fluid (ELISA); details: asthma-induced mice, homoegonol study; for Total serum IgE level: Table 2
Procedure: as §1
To measure serum and bronchoalveolar lavage fluid ovalbumin-specific IgE levels caused by administration of styraxlignolide A, an immunoenzyme technique was used. 20 μg/mL of ovalbumin was dissolved in a 0.1 M NAHCO3 buffer (pH 8.3), and was placed into a 96-well flat bottom ELISA plate to be coated at 4° C. overnight. Non-specific binding was blocked with PBS containing 1% bovine serum albumin, and a serum sample was diluted 1:400 and was allowed to react at room temperature for 2 hours. Then, the plate was washed well, and anti-mouse IgE monoclonal antibody was diluted 1:300 and was allowed to react for 2 hours. Then, HRP-conjugated goat anti-rat IgG polyclonal antibody which was coupled to peroxidase was diluted 1:4000 and was allowed to react at room temperature for 1 hour, and then, was washed. For color development, 3,3′,5,5′-tetramethylbezidine substrate was allowed to react, and the spectroscopic absorbance was measured at 650 nm.
To measure IgE levels which are correlated with severity of asthma to examine the effect of homoegonol on asthma, IgE levels in serum and bronchoalveolar lavage fluid were measured according to the method in <Experimental Example 4>.

[3] = tested on: fibrosis in subsegmental bronchi; assay: Fibrosis in subsegmental bronchi (Masson's trichrome staining); details: asthma-induced mice, homoegonol study; 30 mg/kg PO
Procedure: as §1

## COc1ccc(-c2cc3cc(CCCO)cc(OC)c3o2)cc1OC [homoegonol]
[1]; 7.5 mg/kg PO 1 hour prior to ovalbumin inhalation
  body weight: 22.10 ± 0.13 g
[1]; 15 mg/kg PO 1 hour prior to ovalbumin inhalation
  body weight: 21.23 ± 0.43 g
[1]; 30 mg/kg PO 1 hour prior to ovalbumin inhalation
  body weight: 21.98 ± 0.47 g
[2]; 7.5 mg/kg PO, methacholine 0 mg/ml
  Penh values: 0.6003 ± 0.0500
[2]; 7.5 mg/kg PO, methacholine 12.5 mg/ml
  Penh values: 1.1399 ± 0.1279
[2]; 7.5 mg/kg PO, methacholine 25 mg/ml
  Penh values: 1.4067 ± 0.1279
[2]; 7.5 mg/kg PO, methacholine 50 mg/ml
  Penh values: 1.4317 ± 0.2094
[2]; 15 mg/kg PO, methacholine 0 mg/ml
  Penh values: 0.4538 ± 0.0376
[2]; 15 mg/kg PO, methacholine 12.5 mg/ml
  Penh values: 0.7989 ± 0.0736
[2]; 15 mg/kg PO, methacholine 25 mg/ml
  Penh values: 1.0243 ± 0.1881
[2]; 15 mg/kg PO, methacholine 50 mg/ml
  Penh values: 1.0918 ± 0.1914
[2]; 30 mg/kg PO, methacholine 0 mg/ml
  Penh values: 0.4736 ± 0.0420
[2]; 30 mg/kg PO, methacholine 12.5 mg/ml
  Penh values: 0.6516 ± 0.0914
[2]; 30 mg/kg PO, methacholine 25 mg/ml
  Penh values: 0.9515 ± 0.1268
[2]; 30 mg/kg PO, methacholine 50 mg/ml
  Penh values: 1.0576 ± 0.1582
ovalbumin-specific IgE; 7.5 mg/kg PO, 7.5 mg/kg
  Total IgE level in bronchoalveolar lavage fluid: 65.5957 ± 11.6656 ng/mL
ovalbumin-specific IgE; 7.5 mg/kg PO
  serum IgE levels: 19.22 ± 4.9287 µg/mL
  Total serum IgE level: 10.34 ± 6.0548 µg/mL
ovalbumin-specific IgE; 15 mg/kg PO, 15 mg/kg
  Total IgE level in bronchoalveolar lavage fluid: 48.4894 ± 4.1926 ng/mL
ovalbumin-specific IgE; 15 mg/kg PO
  serum IgE levels: 10.74 ± 3.4612 µg/mL
  Total serum IgE level: 9.94 ± 5.0656 µg/mL
ovalbumin-specific IgE; 30 mg/kg PO, 30 mg/kg
  Total IgE level in bronchoalveolar lavage fluid: 23.8085 ± 3.3515 ng/mL
ovalbumin-specific IgE; 30 mg/kg PO
  serum IgE levels: 8.14 ± 5.9682 µg/mL
  Total serum IgE level: 8.62 ± 2.4844 µg/mL
[3]
  area of a fibrosis stained region per 100 μm of a basement membrane perimeter: 320.99 ± 46.2236 μm^2/100 μm of basement membrane
